Patent US20250205186A1, “USE OF CHLOROGENIC ACID IN PREPARING MEDICINE OR PHARMACEUTICAL COMPOSITION FOR PREVENTING OR TREATING PAIN” (SICHUAN JIUZHANG BIOLOGICAL SCIENCE AND TECHNOLOGY CO., LTD., priority 2019, published 2025)

Columns and labels:
[1] = test system: bone cancer pain in rats (Walker rat breast cancer cells, tibia implant model); assay: Radiant heat pain response (pain threshold) in rat tibia implant bone cancer pain model; format: in vivo; conditions: for Radiant heat pain threshold compared with the model group: from 7 days after administration, p<0.05
Method: After two SD female rats were intraperitoneally injected with 0.5 mL cancer cells (4×10^4 cells/μL), ascites was collected on the 7th day, and the cells are rinsed 3 times with sterile 0.01 mol/L PBS to adjust to the concentration of 4×10^3 cells/μL for use. 60 SD rats were randomly selected, and after anesthesia, a small 1 cm incision was made in the upper tibial skin. A 10 mL syringe needle was used to puncture and perforate, then a 10 μL syringe was inserted into the bone marrow cavity, and 3 μL cell suspension containing 3×10^3 Walker rat breast cancer cells was slowly injected. The pinhole was sealed with bone wax, and the skin was sutured. After surgery, the rats were placed on a 37° C. hot plate for rewarming. After recovery, rats were returned to the cage for further breeding, to obtain the model group. In addition, 8 SD rats were randomly selected, and an equal volume of PBS solution was injected into the marrow cavity of the left upper tibia. The rest of the operations were the same as the model group, to obtain the sham operation group. Radiation thermal pain response: the rat was placed on a glass plate, and the affected side of the foot was irradiated with a heat radiator. The plantar side of each rat would be tested 3 times at an interval of 5 min. The response time from exposure to paw withdrawal was recorded, and the time to retract the paw was the pain threshold. […] The rats that had been successfully modeled were randomly divided into groups, eight rats for each group, that included high-dose chlorogenic acid group (80 mg/kg), middle-dose chlorogenic acid group (40 mg/kg), low-dose chlorogenic acid group (20 mg/kg), model negative group (N.S normal saline), and sham operation group (N.S normal saline). The rats were intraperitoneally injected with drugs for 15 days in a volume of 0.2 mL/10 g, once a day; the model-negative group and the sham operation group were given the same volume of normal saline. From the second day after administration, the mechanical pain hypersensitivity and radiation thermal pain were investigated before each administration, and the paw withdrawal threshold and the pain threshold were recorded.

DA = DA content in brain tissue by HPLC-EC in bone cancer pain rats; format: in vivo, rat; conditions: for DA content in the brain tissue: after 15 days of administration
Method: 60 SD rats were randomly selected, and after anesthesia, a small 1 cm incision was made in the upper tibial skin. A 10 mL syringe needle was used to puncture and perforate, then a 10 μL syringe was inserted into the bone marrow cavity, and 3 μL cell suspension containing […] Walker rat breast cancer cells was slowly injected. The pinhole was sealed with bone wax, and the skin was sutured. After surgery, the rats were placed on a 37° C. hot plate for rewarming. After recovery, rats were returned to the cage for further breeding, to obtain the model group. In addition, 8 SD rats were randomly selected, and an equal volume of PBS solution was injected into the marrow cavity of the left upper tibia. The rest of the operations were the same as the model group, to obtain the sham operation group. The rats that had been successfully modeled were randomly divided into groups, eight rats for each group, that included high-dose chlorogenic acid group (80 mg/kg), middle-dose chlorogenic acid group (40 mg/kg), low-dose chlorogenic acid group (20 mg/kg), model negative group (N.S normal saline), and sham operation group (N.S normal saline). The rats were intraperitoneally injected with drugs for 15 days in a volume of 0.2 mL/10 g, once a day; the model-negative group and the sham operation group were given the same volume of normal saline. After the rats were sacrificed, the hypothalamus was quickly separated, homogenized in an ice bath with perchloric acid, and centrifuged. The supernatant was collected, and the contents of NE, DA, and 5-HT were determined by HPLC-EC method (Hou […], Wang Na, et al, Effects of progesterone on morphine-induced conditioned place preference and levels of monoamine transmitters in rat brain. Chinese Journal of Pharmacology, 2006, 22(8), 980-983).

IL-1β = assay: Serum IL-1β content by ELISA in bone cancer pain rats; format: in vivo, rat; conditions: for Cytokines IL-1β content in serum: after 15 days of administration; for Serum level of IL-1β compared with the model-negative group: after 15 days
Method: 60 SD rats were randomly selected, and after anesthesia, a small 1 cm incision was made in the upper tibial skin. A 10 mL syringe needle was used to puncture and perforate, then a 10 μL syringe was inserted into the bone marrow cavity, and 3 μL cell suspension containing 3×10^3 Walker rat breast cancer cells was slowly injected. The pinhole was sealed with bone wax, and the skin was sutured. After surgery, the rats were placed on a 37° C. hot plate for rewarming. After recovery, rats were returned to the cage for further breeding, to obtain the model group. In addition, 8 SD rats were randomly selected, and an equal volume of PBS solution was injected into the marrow cavity of the left upper tibia. The rest of the operations were the same as the model group, to obtain the sham operation group. The rats that had been successfully modeled were randomly divided into groups, eight rats for each group, that included high-dose chlorogenic acid group (80 mg/kg), middle-dose chlorogenic acid group (40 mg/kg), low-dose chlorogenic acid group (20 mg/kg), model negative group (N.S normal saline), and sham operation group (N.S normal saline). The rats were intraperitoneally injected with drugs for 15 days in a volume of 0.2 mL/10 g, once a day; the model-negative group and the sham operation group were given the same volume of normal saline. After the last administration, blood was collected from the eyeballs of the rats, and the animals in each group were sacrificed by neck removal. The blood samples were allowed to stand at room temperature for 20 minutes and then centrifuged. The supernatant was collected and the contents of TNF-α, IL-1β, and IL-6 in the peripheral blood serum of the […] were determined by ELISA.

## O=C(/C=C/c1ccc(O)c(O)c1)O[C@@H]1C[C@](O)(C(=O)O)C[C@@H](O)[C@H]1O [Chlorogenic acid]
[1]; 20 mg/kg ip once a day, 2 d
  Pain threshold: 3.86 s
[1]; 20 mg/kg ip once a day, 3 d
  Pain threshold: 4.11 s
[1]; 20 mg/kg ip once a day, 4 d
  Pain threshold: 3.93 s
[1]; 20 mg/kg ip once a day, 5 d
  Pain threshold: 9.53 s
[1]; 20 mg/kg ip once a day, 6 d
  Pain threshold: 16.66 s
[1]; 20 mg/kg ip once a day, 7 d
  Pain threshold: 17.89 s
[1]; 20 mg/kg ip once a day, 8 d
  Pain threshold: 16.72 s
[1]; 20 mg/kg ip once a day, 9 d
  Pain threshold: 15.45 s
[1]; 20 mg/kg ip once a day, 10 d
  Pain threshold: 16.74 s
[1]; 20 mg/kg ip once a day, 11 d
  Pain threshold: 15.52 s
[1]; 20 mg/kg ip once a day, 12 d
  Pain threshold: 15.97 s
[1]; 20 mg/kg ip once a day, 13 d
  Pain threshold: 16.35 s
[1]; 20 mg/kg ip once a day, 14 d
  Pain threshold: 16.22 s
[1]; 20 mg/kg ip once a day, 15 d
  Pain threshold: 16.75 s
[1]; 20 mg/kg
  Radiant heat pain threshold compared with the model group: significant difference
[1]; 40 mg/kg ip once a day, 2 d
  Pain threshold: 3.62 s
[1]; 40 mg/kg ip once a day, 3 d
  Pain threshold: 3.52 s
[1]; 40 mg/kg ip once a day, 4 d
  Pain threshold: 6.36 s
[1]; 40 mg/kg ip once a day, 5 d
  Pain threshold: 12.52 s
[1]; 40 mg/kg ip once a day, 6 d
  Pain threshold: 20.53 s
[1]; 40 mg/kg ip once a day, 7 d
  Pain threshold: 20.49 s
[1]; 40 mg/kg ip once a day, 8 d
  Pain threshold: 19.83 s
[1]; 40 mg/kg ip once a day, 9 d
  Pain threshold: 21.21 s
[1]; 40 mg/kg ip once a day, 10 d
  Pain threshold: 24.32 s
[1]; 40 mg/kg ip once a day, 11 d
  Pain threshold: 20.59 s
[1]; 40 mg/kg ip once a day, 12 d
  Pain threshold: 21.41 s
[1]; 40 mg/kg ip once a day, 13 d
  Pain threshold: 22.39 s
[1]; 40 mg/kg ip once a day, 14 d
  Pain threshold: 21.74 s
[1]; 40 mg/kg ip once a day, 15 d
  Pain threshold: 20.88 s
[1]; 40 mg/kg
  Radiant heat pain threshold compared with the model group: significant difference
[1]; 80 mg/kg ip once a day, 2 d
  Pain threshold: 4.17 s
[1]; 80 mg/kg ip once a day, 3 d
  Pain threshold: 4.24 s
[1]; 80 mg/kg ip once a day, 4 d
  Pain threshold: 4.09 s
[1]; 80 mg/kg ip once a day, 5 d
  Pain threshold: 5.52 s
[1]; 80 mg/kg ip once a day, 6 d
  Pain threshold: 8.15 s
[1]; 80 mg/kg ip once a day, 7 d
  Pain threshold: 8.22 s
[1]; 80 mg/kg ip once a day, 8 d
  Pain threshold: 7.98 s
[1]; 80 mg/kg ip once a day, 9 d
  Pain threshold: 7.59 s
[1]; 80 mg/kg ip once a day, 10 d
  Pain threshold: 8.03 s
[1]; 80 mg/kg ip once a day, 11 d
  Pain threshold: 8.05 s
[1]; 80 mg/kg ip once a day, 12 d
  Pain threshold: 7.76 s
[1]; 80 mg/kg ip once a day, 13 d
  Pain threshold: 7.98 s
[1]; 80 mg/kg ip once a day, 14 d
  Pain threshold: 8.52 s
[1]; 80 mg/kg ip once a day, 15 d
  Pain threshold: 8.38 s
[1]; 80 mg/kg, p>0.05
  Threshold compared with the model group (radiant heat pain section): not statistically significant
DA; 20 mg/kg ip once a day
  DA content in the brain tissue: 1.38 ± 0.21 nmol/g
DA; 20 mg/kg, p<0.05
  DA content in brain tissue compared with the model-negative group: the difference was significant
DA; 40 mg/kg ip once a day
  DA content in the brain tissue: 1.46 ± 0.08 nmol/g
DA; 40 mg/kg, p<0.05
  DA content in brain tissue compared with the model-negative group: the difference was significant
DA; 80 mg/kg ip once a day
  DA content in the brain tissue: 1.15 ± 0.12 nmol/g
DA; 80 mg/kg, p>0.05
  DA content in brain tissue compared with the model-negative group: no significant difference
IL-1β; 20 mg/kg ip once a day
  Cytokines IL-1β content in serum: 58.54 ± 8.23 ng/L
IL-1β; 20 mg/kg, p<0.05
  Serum level of IL-1β compared with the model-negative group: lower than those in the model-negative group
IL-1β; 40 mg/kg ip once a day
  Cytokines IL-1β content in serum: 52.71 ± 6.39 ng/L
IL-1β; 40 mg/kg, p<0.05
  Serum level of IL-1β compared with the model-negative group: lower than those in the model-negative group
IL-1β; 80 mg/kg ip once a day
  Cytokines IL-1β content in serum: 76.25 ± 4.62 ng/L
IL-1β; 80 mg/kg
  Serum level of IL-1β compared with the model-negative group: the difference was not significant
